# From patent publication US9187484B2 (Southern Research Institute, priority 2012, dated 2015)
# Biological target: T1, LRRK2 (G2019S) (Homo sapiens, UniProt Q5S007, G2019S)
# T1 construct: Recombinant GST-LRRK2 (delta970), purified from baculovirus infected insect cells (SF9); GST (N); host or cells: baculovirus infected insect cells (SF9)
# Experiment: LRRK2 inhibition, radiometric kinase assay with recombinant GST-LRRK2 (delta970) and peptide substrate
# Assay type: biochemical
# Conditions: GST-LRRK2 (delta970) G2019S 30 nM, ATP ~52 μM (Km), 30 min at 30° C.
# Method: Compounds were assessed for inhibition of LRRK2 inhibition using the following procedure.
# Recombinant GST-LRRK2 (delta970), purified from baculovirus infected insect cells (SF9), at least 90% pure and either wild-type sequence or bearing the pathogenic G2019S mutation, was combined into a kinase buffer at 30 nM concentration. Kinase buffer consists of 50 mM Tris HCl pH 7.4, 1 mM EDTA, and 50 μM peptide substrate (amino acid sequence […]). Experimental compounds or control (no compound) were added at desired concentrations in DMSO and water, where final concentration of DMSO in kinase reactions was 0.1% for all drug concentrations. Activation buffer that consists of a final concentration in the reactions of 10 mM MgCl2 and ATP (˜92 μM for WT-LRRK2 reactions and ˜52 μM for G2019S-LRRK2, which represent respective Km ATP concentrations) were added to each reaction, in addition to 0.5 μCi of gamma-32-P-dATP per reaction. Reactions were incubated at 1400 RPM at 30° C. for 30 min. and then spotted in triplicate directly onto a slot-blot apparatus fitted with phospho-cellulose paper and allowed to dry. Each slot was then washed with 10 mM phosphoric acid buffer until beta-radiation could not be detected in eluted wash buffer, usually ˜1 mL per slot. Paper within each slot were excised and radiation measured by liquid scintillation.
# T1 sequence (Q5S007 970-2527 G2019S limits assumed): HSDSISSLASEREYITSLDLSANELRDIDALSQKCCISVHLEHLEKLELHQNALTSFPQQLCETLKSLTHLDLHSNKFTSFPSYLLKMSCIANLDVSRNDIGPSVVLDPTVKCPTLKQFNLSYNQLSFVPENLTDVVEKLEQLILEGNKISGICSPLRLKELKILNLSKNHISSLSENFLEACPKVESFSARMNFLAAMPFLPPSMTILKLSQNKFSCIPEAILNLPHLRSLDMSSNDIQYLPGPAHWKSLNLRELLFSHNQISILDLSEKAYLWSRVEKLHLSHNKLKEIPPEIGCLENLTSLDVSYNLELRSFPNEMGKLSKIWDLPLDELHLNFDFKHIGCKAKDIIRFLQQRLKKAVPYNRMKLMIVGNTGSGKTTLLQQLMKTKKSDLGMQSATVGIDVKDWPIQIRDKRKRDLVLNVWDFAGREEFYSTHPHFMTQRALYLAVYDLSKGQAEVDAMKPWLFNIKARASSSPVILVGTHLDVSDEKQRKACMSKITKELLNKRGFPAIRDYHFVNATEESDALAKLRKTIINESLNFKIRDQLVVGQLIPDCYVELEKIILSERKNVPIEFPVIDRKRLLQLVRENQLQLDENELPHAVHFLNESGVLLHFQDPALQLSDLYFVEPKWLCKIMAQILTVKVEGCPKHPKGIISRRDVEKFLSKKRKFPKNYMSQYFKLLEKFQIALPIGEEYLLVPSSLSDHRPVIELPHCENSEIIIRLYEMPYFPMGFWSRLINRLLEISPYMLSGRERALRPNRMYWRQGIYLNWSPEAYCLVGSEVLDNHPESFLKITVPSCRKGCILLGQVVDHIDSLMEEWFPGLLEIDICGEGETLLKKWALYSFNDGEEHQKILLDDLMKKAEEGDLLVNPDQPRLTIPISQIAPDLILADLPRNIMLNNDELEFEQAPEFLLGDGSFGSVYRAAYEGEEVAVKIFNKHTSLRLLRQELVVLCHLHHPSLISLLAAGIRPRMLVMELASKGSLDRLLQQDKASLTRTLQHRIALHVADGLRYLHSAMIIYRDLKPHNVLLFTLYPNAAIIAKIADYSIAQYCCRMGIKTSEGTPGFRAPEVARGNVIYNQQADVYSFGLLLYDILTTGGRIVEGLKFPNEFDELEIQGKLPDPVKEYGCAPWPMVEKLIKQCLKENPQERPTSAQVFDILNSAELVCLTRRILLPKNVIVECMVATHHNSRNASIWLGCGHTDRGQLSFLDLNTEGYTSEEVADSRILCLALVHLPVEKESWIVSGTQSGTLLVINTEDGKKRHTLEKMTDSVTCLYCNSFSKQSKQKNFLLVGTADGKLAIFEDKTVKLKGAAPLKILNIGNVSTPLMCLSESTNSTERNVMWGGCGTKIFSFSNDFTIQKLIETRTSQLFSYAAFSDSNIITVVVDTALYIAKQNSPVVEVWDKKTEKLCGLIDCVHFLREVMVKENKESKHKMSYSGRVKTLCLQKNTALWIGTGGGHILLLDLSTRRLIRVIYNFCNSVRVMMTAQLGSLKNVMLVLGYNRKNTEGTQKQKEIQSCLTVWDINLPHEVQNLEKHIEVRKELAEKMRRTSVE
row,IC50 [nM],SMILES
1,100 to 1000,"CCC(Sc1ccc2nnc(-c3cccs3)n2n1)C(=O)N1CCC1 (stereo not drawn) [Example 114, 1-(azetidin-1-yl)-2-((3-(thiophen-2-yl)-[1,2,4]triazolo[4,3-b]pyridazin-6-yl)thio)butan-1-one]"
2,1000 to 5000,"NC(=O)CSc1ccc2nnc(-c3ccc(F)cc3)n2n1 [Example 19, 2-((3-(4-fluorophenyl)-[1,2,4]triazolo[4,3-b]pyridazin-6-yl)thio)acetamide]"
3,1000 to 5000,"CCC(Sc1ccc2nnc(-c3ccc(F)cc3)n2n1)C(=O)N1CCCCC1 (stereo not drawn) [Example 9, 2-((3-(4-fluorophenyl)-[1,2,4]triazolo[4,3-b]pyridazin-6-yl)thio)-1-(piperidin-1-yl)butan-1-one]"
4,100 to 1000,"CCC(Sc1ccc2nnc(-c3ccc(Cl)s3)n2n1)C(=O)N1CCCCC1 (stereo not drawn) [Example 62, 2-((3-(5-chlorothiophen-2-yl)-[1,2,4]triazolo[4,3-b]pyridazin-6-yl)thio)-1-(piperidin-1-yl)butan-1-one]"
5,≥ 5000,"CCC(Oc1ccc2nnc(-c3cccs3)n2n1)C(=O)O (stereo not drawn) [Example 83, 2-((3-(thiophen-2-yl)-[1,2,4]triazolo[4,3-b]pyridazin-6-yl)oxy)butanoic acid]"
6,≥ 5000,"O=C(O)CSc1ccc2nnc(-c3csc4ccccc34)n2n1 [Example 38, 2-((3-(benzo[b]thiophen-3-yl)-[1,2,4]triazolo[4,3-b]pyridazin-6-yl)thio)acetic acid]"
7,≥ 5000,"Cc1scc(-c2nnc3ccc(SCC(N)=O)nn23)c1-c1ccccc1 [Example 40, 2-((3-(5-methyl-4-phenylthiophen-3-yl)-[1,2,4]triazolo[4,3-b]pyridazin-6-yl)thio)acetamide]"
8,1000 to 5000,"CCOC(=O)C(CC)Sc1ccc2nnc(-c3cccc(OC)c3)n2n1 (stereo not drawn) [Example 71, ethyl 2-((3-(3-methoxyphenyl)-[1,2,4]triazolo[4,3-b]pyridazin-6-yl)thio)butanoate]"
9,≥ 5000,"CCC(Sc1ccc2nnc(-c3ccc(F)cc3)n2n1)C(=O)Nc1ccccc1C(F)(F)F (stereo not drawn) [Example 14, 2-((3-(4-fluorophenyl)-[1,2,4]triazolo[4,3-b]pyridazin-6-yl)thio)-N-(2-(trifluoromethyl)phenyl)butanamide]"
10,100 to 1000,"CCC(Sc1ccc2nnc(-c3ccc(F)cc3)n2n1)C(=O)N1CCCC1 (stereo not drawn) [Example 8, 2-((3-(4-fluorophenyl)-[1,2,4]triazolo[4,3-b]pyridazin-6-yl)thio)-1-(pyrrolidin-1-yl)butan-1-one]"
11,100 to 1000,"Cc1ccc(-c2nnc3ccc(SCC(N)=O)nn23)s1 [Example 49, 2-((3-(5-methylthiophen-2-yl)-[1,2,4]triazolo[4,3-b]pyridazin-6-yl)thio)acetamide]"
12,100 to 1000,"CCC(Sc1ccc2nnc(-c3cccc(F)c3)n2n1)C(N)=O (stereo not drawn) [Example 81, 2-((3-(3-fluorophenyl)-[1,2,4]triazolo[4,3-b]pyridazin-6-yl)thio)butanamide]"
13,≥ 5000,"O=C(O)CSc1ccc2nnc(-c3nccs3)n2n1 [Example 42, 2-((3-(thiazol-2-yl)-[1,2,4]triazolo[4,3-b]pyridazin-6-yl)thio)acetic acid]"
14,100 to 1000,"CCC(Sc1ccc2nnc(-c3ccc(Cl)s3)n2n1)C(=O)N1CCCC1 (stereo not drawn) [Example 63, 2-((3-(5-chlorothiophen-2-yl)-[1,2,4]triazolo[4,3-b]pyridazin-6-yl)thio)-1-(pyrrolidin-1-yl)butan-1-one]"
15,100 to 1000,"CCC(Sc1ccc2nnc(-c3ccccc3F)n2n1)C(=O)O (stereo not drawn) [Example 55, 2-((3-(2-fluorophenyl)-[1,2,4]triazolo[4,3-b]pyridazin-6-yl)thio)butanoic acid]"
16,100 to 1000,"CCC(Sc1ccc2nnc(-c3cccs3)n2n1)C(=O)N1CCCC(C)C1 (stereo not drawn) [Example 51, 1-(3-methylpiperidin-1-yl)-2-((3-(thiophen-2-yl)-[1,2,4]triazolo[4,3-b]pyridazin-6-yl)thio)butan-1-one]"
17,100 to 1000,"CCC(Sc1ccc2nnc(-c3ccccc3F)n2n1)C(=O)N1CCCCC1 (stereo not drawn) [Example 94, 2-((3-(2-fluorophenyl)-[1,2,4]triazolo[4,3-b]pyridazin-6-yl)thio)-1-(piperidin-1-yl)butan-1-one]"
18,100 to 1000,"CCC(Sc1ccc2nnc(-c3cccc(OC)c3)n2n1)C(N)=O (stereo not drawn) [Example 72, 2-((3-(3-methoxyphenyl)-[1,2,4]triazolo[4,3-b]pyridazin-6-yl)thio)butanamide]"
19,100 to 1000,"CCC(Sc1ccc2nnc(-c3ccccc3F)n2n1)C(N)=O (stereo not drawn) [Example 80, 2-((3-(2-fluorophenyl)-[1,2,4]triazolo[4,3-b]pyridazin-6-yl)thio)butanamide]"
20,100 to 1000,"O=C(CSc1ccc2nnc(-c3cccs3)n2n1)N1CCCC1 [Example 21, 1-(pyrrolidin-1-yl)-2-((3-(thiophen-2-yl)-[1,2,4]triazolo[4,3-b]pyridazin-6-yl)thio)ethanone]"
21,1000 to 5000,"CCCN(CCC)C(=O)C(C)Sc1ccc2nnc(-c3cccs3)n2n1 (stereo not drawn) [Example 123, N,N-dipropyl-2-((3-(thiophen-2-yl)-[1,2,4]triazolo[4,3-b]pyridazin-6-yl)thio)propanamide]"
22,1000 to 5000,"CCC(Sc1ccc2nnc(-c3ccc(C(F)(F)F)cc3)n2n1)C(=O)N1CCCCC1 (stereo not drawn) [Example 95, 1-(piperidin-1-yl)-2-((3-(4-(trifluoromethyl)phenyl)-[1,2,4]triazolo[4,3-b]pyridazin-6-yl)thio)butan-1-one]"

# Further lines, the compound ahead of its results:
row,SMILES,IC50 [nM]
1,"CC(Sc1ccc2nnc(-c3cscn3)n2n1)C(=O)N1CCCC1 (stereo not drawn) [Example 111, 1-(pyrrolidin-1-yl)-2-((3-(thiazol-4-yl)-[1,2,4]triazolo[4,3-b]pyridazin-6-yl)thio)propan-1-one]",100 to 1000
2,"O=C(O)CSc1ccc2nnc(-c3ccc(F)cc3)n2n1 [Example 17, 2-((3-(4-fluorophenyl)-[1,2,4]triazolo[4,3-b]pyridazin-6-yl)thio)acetic acid]",≥ 5000
3,"CC(Sc1ccc2nnc(-c3cccs3)n2n1)C(=O)O (stereo not drawn) [Example 36, 2-((3-(thiophen-2-yl)-[1,2,4]triazolo[4,3-b]pyridazin-6-yl)thio)propanoic acid]",100 to 1000
4,"CCC(Sc1ccc2nnc(-c3ccccc3OC)n2n1)C(=O)N1CCCCC1 (stereo not drawn) [Example 70, 2-((3-(2-methoxyphenyl)-[1,2,4]triazolo[4,3-b]pyridazin-6-yl)thio)-1-(piperidin-1-yl)butan-1-one]",≥ 5000
5,"CCOC(=O)C(CC)Sc1ccc2nnc(-c3ccc(C(F)(F)F)cc3)n2n1 (stereo not drawn) [Example 77, ethyl 2-((3-(4-(trifluoromethyl)phenyl)-[1,2,4]triazolo[4,3-b]pyridazin-6-yl)thio)butanoate]",≥ 5000
6,"CCc1ccc(-c2nnc3ccc(SC(CC)C(=O)N4CCCCC4)nn23)s1 (stereo not drawn) [Example 87, 2-((3-(5-ethylthiophen-2-yl)-[1,2,4]triazolo[4,3-b]pyridazin-6-yl)thio)-1-(piperidin-1-yl)butan-1-one]",100 to 1000
7,"O=C(O)CSc1ccc2nnc(-c3cccs3)n2n1 [Example 27, 2-((3-(thiophen-2-yl)-[1,2,4]triazolo[4,3-b]pyridazin-6-yl)thio)acetic acid]",≥ 5000
8,"CCCC(Sc1ccc2nnc(-c3cccs3)n2n1)C(=O)N1CCCCC1 (stereo not drawn) [Example 93, 1-(piperidin-1-yl)-2-((3-(thiophen-2-yl)-[1,2,4]triazolo[4,3-b]pyridazin-6-yl)thio)pentan-1-one]",100 to 1000
9,"CCC(Sc1ccc2nnc(-c3ccc(C)s3)n2n1)C(=O)O (stereo not drawn) [Example 89, 2-((3-(5-methylthiophen-2-yl)-[1,2,4]triazolo[4,3-b]pyridazin-6-yl)thio)butanoic acid]",100 to 1000
10,"NC(=O)CSc1ccc2nnc(-c3csc4ccccc34)n2n1 [Example 35, 2-((3-(benzo[b]thiophen-3-yl)-[1,2,4]triazolo[4,3-b]pyridazin-6-yl)thio)acetamide]",1000 to 5000
11,"CC(Sc1ccc2nnc(-c3cccs3)n2n1)C(=O)N1CCC1 (stereo not drawn) [Example 101, 1-(azetidin-1-yl)-2-((3-(thiophen-2-yl)-[1,2,4]triazolo[4,3-b]pyridazin-6-yl)thio)propan-1-one]",< 100
12,CCC(Sc1ccc2nnc(-c3ccc(F)cc3)n2n1)C(=O)Nc1cnc2ccccc2c1 (stereo not drawn) [Example 12],≥ 5000
13,"CCOC(=O)C(CC)Sc1ccc2nnc(-c3ccc(F)c(F)c3)n2n1 (stereo not drawn) [Example 76, ethyl 2-((3-(3,4-difluorophenyl)-[1,2,4]triazolo[4,3-b]pyridazin-6-yl)thio)butanoate]",1000 to 5000
14,"CCOC(=O)C(CC)Sc1ccc2nnc(-c3ccccc3OC)n2n1 (stereo not drawn) [Example 68, ethyl 2-((3-(2-methoxyphenyl)-[1,2,4]triazolo[4,3-b]pyridazin-6-yl)thio)butanoate]",≥ 5000
15,"CCOC(=O)C(CC)Sc1ccc2nnc(-c3ccc(F)cc3)n2n1 (stereo not drawn) [Example 1, ethyl 2-((3-(4-fluorophenyl)-[1,2,4]triazolo[4,3-b]pyridazin-6-yl)thio)butanoate]",≥ 5000
16,"NC(=O)CSc1ccc2nnc(C3CCCC3)n2n1 [Example 15, 2-((3-cyclopentyl-[1,2,4]triazolo[4,3-b]pyridazin-6-yl)thio)acetamide]",1000 to 5000
17,"Cc1ccc(-c2nnc3ccc(SCC(=O)O)nn23)cc1 [Example 13, 2-((3-(p-tolyl)-[1,2,4]triazolo[4,3-b]pyridazin-6-yl)thio)acetic acid]",1000 to 5000
